Like-named read-outs stand apart in the source and are kept apart here. Numbered stars: 1 amine (or outer) side, 2 acyl side, 3 side chain; on linkers, the order of the positions; unused ones are H or OH. Bridge positions count the residues as written; N and C are the ends. Side chains are listed from the residue outwards. Peptide text beside a SMILES is read from it. * marks the point of attachment. C20 diacid = O=C(O)CCCCCCCCCCCCCCCCCCC(=O)*; γGlu = O=C(O)[C@H](CCC(=O)[*:2])N[*:1]; AEEA = NCCOCCOCC(=O)O

Assay [1] concerns the target T1, human amylin receptor (amylin 3(a) receptor: human calcitonin receptor + RAMP-3) (Homo sapiens, UniProt O60896+P30988).
T1 construct: expressed in transfected cells
T1 sequence (P30988 25-474): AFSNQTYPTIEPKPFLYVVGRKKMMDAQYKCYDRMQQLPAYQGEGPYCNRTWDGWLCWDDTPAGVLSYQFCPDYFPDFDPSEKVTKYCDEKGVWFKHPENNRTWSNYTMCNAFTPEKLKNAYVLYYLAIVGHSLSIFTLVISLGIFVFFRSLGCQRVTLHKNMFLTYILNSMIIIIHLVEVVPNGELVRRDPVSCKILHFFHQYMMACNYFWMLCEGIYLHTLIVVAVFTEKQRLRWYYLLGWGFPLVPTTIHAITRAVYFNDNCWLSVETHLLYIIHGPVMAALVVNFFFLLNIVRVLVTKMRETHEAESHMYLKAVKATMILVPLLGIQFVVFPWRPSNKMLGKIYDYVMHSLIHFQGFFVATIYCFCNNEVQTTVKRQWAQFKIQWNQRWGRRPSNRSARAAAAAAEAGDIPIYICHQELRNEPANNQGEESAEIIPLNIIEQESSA
T1 sequence (O60896 24-148 partner): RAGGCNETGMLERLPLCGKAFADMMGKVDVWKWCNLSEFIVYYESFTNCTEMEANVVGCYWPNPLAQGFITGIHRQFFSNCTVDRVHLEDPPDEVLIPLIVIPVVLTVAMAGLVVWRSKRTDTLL
Put plainly: Assay (II)a functional assay, human amylin receptor (CRE luciferase, BHK cells). It counts as cell-based. The following applies: for EC50: read-out: hAmylin-R funct. EC50.

The target in assay [2] is T2, human calcitonin receptor (Homo sapiens, UniProt P30988).
T2 construct: expressed in transfected cells
T2 sequence (P30988 25-474): T1 sequence (P30988 25-474)
Put plainly: Assay (II)a functional assay, human calcitonin receptor (CRE luciferase, BHK cells).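 Also: luminescence from a CRE-driven luciferase reporter, read by single photon counting after cells were exposed to test samples for 3 h at 37 °C under 5% CO2.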 The assay is classed as cell-based. The following applies: read-out: hCTR funct. EC50.

For the next assay, the target named is T3, human amylin receptor (Homo sapiens, UniProt O60896+P30988).
T3 construct: expressed in transfected cells
T3 sequence (P30988 25-474): T1 sequence (P30988 25-474)
T3 sequence (O60896 24-148 partner): T1 sequence (O60896 24-148 partner)
As to the kind of experiment: Assay (V) binding to the human amylin receptor (SPA, 125I-rat amylin). As to conditions: for IC50: human amylin receptor membranes, SPA, read-out: hAmylin-R bind IC50. In a few lines:
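IC50, taken as receptor affinity, came from one-site binding competition analysis of scintillation proximity counts. Amylin 3(a)/CRE-luc cell membranes (35 ng/μL final) were mixed with SPA beads (0.05 mg/well) in 50 mM Hepes pH 7.4 containing CaCl2, MgCl2, 0.1% OA and 0.02% Tween20.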

The target in assay [3] is T2, human calcitonin receptor. Put plainly: Assay (VII) binding to the human calcitonin receptor (SPA, 125I-Calcitonin).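 Also: cell membranes coupled to SPA beads, competitive displacement read by scintillation counting, IC50 derived from a one-site competition fit as a measure of receptor affinity.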 The following applies: read-out: hCTR bind IC50.
Where [4] appears, read: Table 6, human functional selectivity (hCTR EC50 / hAmylin-R EC50).
[5] abbreviates: Table 6a, human functional selectivity (hCTR EC50 / hAmylin-R EC50), at least 5.
The mark [6] stands for this setting: Table 6j, hCTR funct. EC50 / hAmylin-R funct. EC50.
The mark [7] stands for this setting: Table 6k, hCTR funct. EC50 / hAmylin-R funct. EC50.
Setting [8] is: functional assay, human amylin receptor.

In the case of `CC[C@H](C)[C@H](NC(=O)[C@H](C)NC(=O)CNC(=O)[C@H](Cc1ccccc1)NC(=O)[C@H](CC(N)=O)NC(=O)[C@@H]1CCCN1C(=O)[C@H](CO)NC(=O)[C@H](CO)NC(=O)[C@H](Cc1c[nH]cn1)NC(=O)[C@H](CCCNC(=N)N)NC(=O)[C@H](CC(C)C)NC(=O)[C@H](Cc1ccccc1)NC(=O)CNC(=O)[C@H](C)NC(=O)[C@H](CC(C)C)NC(=O)[C@H](CCCNC(=N)N)NC(=O)[C@H](CCC(N)=O)NC(=O)[C@@H](NC(=O)[C@H](C)NC(=O)[C@@H]1CSSC[C@H](NC(=O)[C@@H](N)CCCCNC(=O)COCCOCCNC(=O)CC[C@H](NC(=O)CCCCCCCCCCCCCCCCCCC(=O)O)C(=O)O)C(=O)N[C@@H](CC(N)=O)C(=O)N[C@@H]([C@@H](C)O)C(=O)N[C@@H](C)C(=O)N[C@@H]([C@@H](C)O)C(=O)N1)[C@@H](C)O)C(=O)N1CCC[C@H]1C(=O)N[C@@H](CO)C(=O)N[C@@H](CO)C(=O)N[C@H](C(=O)N1CCC[C@H]1C(=O)N[C@H](C(=O)NCC(=O)N[C@@H](CO)C(=O)N[C@@H](CC(N)=O)C(=O)N[C@H](C(=O)N[C@@H](Cc1ccc(O)cc1)C(N)=O)[C@@H](C)O)C(C)C)[C@@H](C)O` [Example 71] (H-K([AEEA-γGlu-C20 diacid])CNTATCATQRLAGFLRHSSPNFGAIPSSTPVGSNTY-NH2; disulfide 2-7), the “Ratio hCT/hAmylin funct.” value in assay [1] (setting [4]), in assay [1] (setting [5]), in assay [1] (setting [6]) and in assay [1] (setting [7]) was 9.4 throughout. Further, the EC50 is 0.056 nM in assay [1] (Table 6j, human amylin receptor functional) and 0.527 nM in assay [2]. Besides, the “Ratio hCT/hAmylin binding” value on human amylin receptor (Table 7b, human calcitonin receptor binding IC50 divided by human amylin receptor binding IC50) stood at 32.0; on human amylin receptor (Table 7c, human calcitonin receptor binding IC50 divided by human amylin receptor binding IC50), 32.0; at human amylin receptor (human binding ratio, included for comparison), 32.0. The IC50 turned out to be 0.048 nM at human amylin receptor and 1.54 nM in assay [3].
In the case of `CC[C@H](C)[C@H](NC(=O)[C@H](C)NC(=O)CNC(=O)[C@H](Cc1ccccc1)NC(=O)[C@H](CC(N)=O)NC(=O)[C@@H]1CCCN1C(=O)[C@H](CO)NC(=O)[C@H](CO)NC(=O)[C@H](Cc1c[nH]cn1)NC(=O)[C@H](CCCNC(=N)N)NC(=O)[C@H](CC(C)C)NC(=O)[C@H](Cc1ccccc1)NC(=O)[C@H](CCCNC(=N)N)NC(=O)[C@H](C)NC(=O)[C@H](CC(C)C)NC(=O)[C@H](CCCNC(=N)N)NC(=O)[C@H](CCC(N)=O)NC(=O)[C@@H](NC(=O)[C@H](C)NC(=O)[C@@H]1CSSC[C@H](NC(=O)[C@@H](N)CCCCNC(=O)CC[C@H](NC(=O)CCCCCCCCCCCCCCCCCCC(=O)O)C(=O)O)C(=O)N[C@@H](CC(N)=O)C(=O)N[C@@H]([C@@H](C)O)C(=O)N[C@@H](C)C(=O)N[C@@H]([C@@H](C)O)C(=O)N1)[C@@H](C)O)C(=O)N1CCC[C@H]1C(=O)N[C@@H](CO)C(=O)N[C@@H](CO)C(=O)N[C@H](C(=O)N[C@@H](CC(N)=O)C(=O)N[C@H](C(=O)NCC(=O)N[C@@H](CO)C(=O)N[C@@H](CC(N)=O)C(=O)N[C@H](C(=O)N[C@@H](Cc1ccc(O)cc1)C(N)=O)[C@@H](C)O)C(C)C)[C@@H](C)O` [Example 83], the 50% effective concentration (EC50) in assay [1] (setting [8]) worked out at 0.405 nM; in assay [2], 16.8 nM. The figures for the IC50 (on human amylin receptor; in assay [3]) were 0.939 nM and 137 nM, respectively.
With `CC[C@H](C)[C@H](NC(=O)[C@H](C)NC(=O)CNC(=O)[C@H](Cc1ccccc1)NC(=O)[C@H](CC(N)=O)NC(=O)[C@@H]1CCCN1C(=O)[C@H](CO)NC(=O)[C@H](CO)NC(=O)[C@H](Cc1c[nH]cn1)NC(=O)[C@H](CCCNC(=N)N)NC(=O)[C@H](CC(C)C)NC(=O)[C@H](Cc1ccccc1)NC(=O)[C@H](CCC(=O)O)NC(=O)[C@H](C)NC(=O)[C@H](CC(C)C)NC(=O)[C@H](CCCNC(=N)N)NC(=O)[C@H](CCC(N)=O)NC(=O)[C@@H](NC(=O)[C@H](C)NC(=O)[C@@H]1CSSC[C@H](NC(=O)[C@@H](N)CCCCNC(=O)CC[C@H](NC(=O)CC[C@H](NC(=O)CCCCCCCCCCCCCCCCCCC(=O)O)C(=O)O)C(=O)O)C(=O)N[C@@H](CC(N)=O)C(=O)N[C@@H]([C@@H](C)O)C(=O)N[C@@H](C)C(=O)N[C@@H]([C@@H](C)O)C(=O)N1)[C@@H](C)O)C(=O)N1CCC[C@H]1C(=O)N[C@@H](CO)C(=O)N[C@@H](CO)C(=O)N[C@H](C(=O)N[C@@H](CC(N)=O)C(=O)N[C@H](C(=O)NCC(=O)N[C@@H](CCCNC(=N)N)C(=O)N[C@@H](CC(N)=O)C(=O)N[C@H](C(=O)N[C@@H](Cc1ccc(O)cc1)C(N)=O)[C@@H](C)O)C(C)C)[C@@H](C)O` [Example 88] (H-K([γGlu-γGlu-C20 diacid])CNTATCATQRLAEFLRHSSPNFGAIPSSTNVGRNTY-NH2; disulfide 2-7), the “Ratio hCT/hAmylin funct.” value in assay [1] (setting [4]) turned out to be 8.5; in assay [1] (setting [5]) it was 8.5; in assay [1] (Table 6i, hCTR funct. EC50 / hAmylin-R funct. EC50) it was 8.5; in assay [1] (setting [6]), 8.5; in assay [1] (setting [7]), 8.5. Moreover, the concentration for a half-maximal effect (EC50) amounted to 0.773 nM in assay [1] (Table 6i, human amylin receptor functional) and 6.55 nM in assay [2]. Moreover, the IC50 at human amylin receptor turned out to be 0.75 nM; in assay [3], 34.9 nM.
As for `CC[C@H](C)[C@H](NC(=O)[C@H](C)NC(=O)CNC(=O)[C@H](Cc1ccccc1)NC(=O)[C@H](CC(N)=O)NC(=O)[C@@H]1CCCN1C(=O)[C@H](CO)NC(=O)[C@H](CO)NC(=O)[C@H](Cc1c[nH]cn1)NC(=O)[C@H](CCCNC(=N)N)NC(=O)[C@H](CC(C)C)NC(=O)[C@H](Cc1ccccc1)NC(=O)[C@H](CC(N)=O)NC(=O)[C@H](C)NC(=O)[C@H](CC(C)C)NC(=O)[C@H](CCCNC(=N)N)NC(=O)[C@H](CCC(N)=O)NC(=O)[C@@H](NC(=O)[C@H](C)NC(=O)[C@@H]1CSSC[C@H](NC(=O)[C@@H](N)CCCCNC(=O)COCCOCCNC(=O)CCCCCCCCCCCCCCCCCCC(=O)O)C(=O)N[C@@H](CC(N)=O)C(=O)N[C@@H]([C@@H](C)O)C(=O)N[C@@H](C)C(=O)N[C@@H]([C@@H](C)O)C(=O)N1)[C@@H](C)O)C(=O)N1CCC[C@H]1C(=O)N[C@@H](CO)C(=O)N[C@@H](CO)C(=O)N[C@H](C(=O)N[C@@H](CC(N)=O)C(=O)N[C@H](C(=O)NCC(=O)N[C@@H](Cc1c[nH]cn1)C(=O)N[C@@H](CC(N)=O)C(=O)N[C@H](C(=O)N[C@@H](Cc1ccc(O)cc1)C(N)=O)[C@@H](C)O)C(C)C)[C@@H](C)O` [Example 91], the figures for the EC50 in assay [1] (setting [8]) and in assay [2] were 0.04 nM and 1.48 nM, respectively. Also, the IC50 at human amylin receptor was 0.119 nM; in assay [3], 12 nM.
For `CC[C@H](C)[C@H](NC(=O)[C@H](C)NC(=O)CNC(=O)[C@H](Cc1ccccc1)NC(=O)[C@H](CC(N)=O)NC(=O)[C@@H]1CCCN1C(=O)[C@H](CO)NC(=O)[C@H](CO)NC(=O)[C@H](Cc1c[nH]cn1)NC(=O)[C@H](CCCNC(=N)N)NC(=O)[C@H](CC(C)C)NC(=O)[C@H](Cc1ccccc1)NC(=O)[C@H](Cc1c[nH]cn1)NC(=O)[C@H](C)NC(=O)[C@H](CC(C)C)NC(=O)[C@H](CCCNC(=N)N)NC(=O)[C@H](CCC(N)=O)NC(=O)[C@@H](NC(=O)[C@H](C)NC(=O)[C@@H]1CSSC[C@H](NC(=O)[C@@H](N)CCCCNC(=O)CC[C@H](NC(=O)CC[C@H](NC(=O)CCCCCCCCCCCCCCCCCCC(=O)O)C(=O)O)C(=O)O)C(=O)N[C@@H](CC(N)=O)C(=O)N[C@@H]([C@@H](C)O)C(=O)N[C@@H](C)C(=O)N[C@@H]([C@@H](C)O)C(=O)N1)[C@@H](C)O)C(=O)N1CCC[C@H]1C(=O)N[C@@H](CO)C(=O)N[C@@H](CO)C(=O)N[C@H](C(=O)N[C@@H](CC(N)=O)C(=O)N[C@H](C(=O)NCC(=O)N[C@@H](CO)C(=O)N[C@@H](CC(N)=O)C(=O)N[C@H](C(=O)N[C@@H](Cc1ccc(O)cc1)C(N)=O)[C@@H](C)O)C(C)C)[C@@H](C)O` [Example 92], the “Ratio hCT/hAmylin funct.” value in assay [1] (setting [4]), in assay [1] (setting [5]), in assay [1] (setting [6]) and in assay [1] (setting [7]) was 28.0 throughout. For the same compound, the EC50 came to 0.085 nM in assay [1] (setting [8]) and 2.38 nM in assay [2]. Further, the half-maximal inhibitory concentration (IC50) on human amylin receptor was 0.179 nM; in assay [3], 26 nM.

The EC50 is the concentration that produces a half-maximal response. As a reminder, the IC50 is the concentration at which inhibition is half-maximal.

The record behind these values is patent publication US8575091B1, “Amylin analogues and pharmaceutical compositions thereof” (Novo Nordisk A/S, priority 2012, dated 2013).
